Experimental data as given in patent US9278925B2, “Substituted 3-(biphenyl-3-yl)-4-hydroxy-8-methoxy-1-azaspiro[4.5]dec-3-en-2-one” (BAYER INTELLECTUAL PROPERTY GMBH, priority 2011, dated 2016).
Read-outs that look alike come from different tables or passages of the source. Blank lines part the entries; values can stand above or below the compound they belong to.

How the values were obtained:
[1] = Octanol/water distribution coefficient (logP/D), isocratic HPLC method; format: physicochemical; details: for chromatographic logP: octanol/water, pH 7.4, pH7.4
Text: Assay for Determining the Octanol/Water Distribution Coefficient (logP/D): The distribution coefficient octanol/water P or D is a key parameter for estimating membrane penetration and permeability. It is defined as the ratio of the equilibrium concentrations of a substance in the two-phase system octanol/water. [formula] P=partition D=distribution c(octanol)=concentration of the substance in the octanol phase c(water)=concentration of the substance in the aqueous phase It is usually stated in form of the decadic logarithm (logP or logD). logP describes the distribution behaviour of a substance exclusively present in its neutral form. logD describes the distribution behaviour of a substance at a certain pH; depending on the ionisation constant pKa of the substance, some of the substance may be present in ionic form, and some in neutral form. The logP/D of the active compounds was determined using an isocratic HPLC method (HPLC=high performance liquid chromatography) (literature: OECD Guideline for Testing of Chemicals No. 117). The method is based on the correlation of the HPLC retention time of the test substance to that of reference substances with known distribution coefficients. […] The nine reference substances were dissolved individually in methanol. 100 μl each of the stock solutions were added to an HPLC vial and mixed with 300 μl of water. [table] A formamide solution was used to determine the hold-up time. To this end, 7 mg of formamide were dissolved in 10 ml of methanol. 100 μl of this stock solution were mixed with 500 μl of methanol and 200 μl of water. […] [table] [table] Injection Protocol: formamide, references, test substance 1, test substance 2, . . . , formamide, references. Evaluation of the retention times was carried out in a diode array detector (DAD) at 200-400 nm Via the molecular mass, the identity of the test substance was checked using the downstream mass spectrometer. The HPLC run was evaluated using the Waters software Masslynx 4.1. The logP/D values were calculated using the software “POW Determination” (proprietary development).

[2] = Membrane affinity logMA (MA-Transil); format: physicochemical; details: buffer pH 7.4
Protocol: Assays for Determining Membrane Affinity logMA and Protein Binding to Human Serum Albumin (HSA):
Determination of membrane affinity and protein binding to human serum albumin (HSA) was carried out via Transil technology (literature: A. Loidl-Stahlhofen, A. Eckert, T. Hartmann, M. Schöttner J Pharm Sci 90, 599-606 (2001)). Transil® (commercially available from Sovicell in Leipzig, Germany) are glass beads (diameter 10-12 μm) coated with a double-layer membrane of phosphatidylcholine (MA-Transil) or covalently attached human serum albumin (HSA-Transil).
To determine the logMA and the protein binding constant to HSA, the commercially available TRANSIL Intestinal Absorption & HSA Binding Combined Assay Kit was used. This is a 96-well microtitre plate (96 well-MTP) which is filled with Transil and can be used to determine MA-Transil and HSA-Transil binding of in each case eight active compounds. For each active compound, the Transil plate provides a row of 12 wells. Two wells serve as reference and are only filled with buffer pH 7.4. Five further wells contain MA-Transil in various increasing concentrations, the five remaining wells contain HSA-Transil in various increasing concentrations.
To determine binding of an active compound to Transil, the supernatant of the wells with Transil was quantified against the reference solution without Transil via HPLC-MS coupling (HPLC-MS=high performance liquid chromatography/mass spectrometry).
This is how the individual steps of the assay were carried out:
From the internal substance store, the active compounds were delivered in a 96-well MTP. This plate is referred to as mother plate. Each well contained 30 μl of a 10 mmol solution of active compound in DMSO (dimethyl sulphoxide). Two wells at the start (well A1) and at the end of the plate (well H12) were filled with 30 μl of a 10 mmol solution of warfarin in DMSO. Warfarin, whose membrane affinity and binding to HSA is known, serves to check whether the measurement is correct. The mother plate was used to prepare a daughter plate with a 1 to 4000 dilution with a mixture of buffer pH 7.4 and DMSO in a ratio of 1+1. The active compound concentration of each well was 2.5 μmol/liter, the volume of each well was 400 μl.
Using a Hamilton pipetting robot Microlab STAR, the 96 active compounds from the daughter plate were divided onto 12 Transil plates in total. From each well of the daughter plate, 12 times 20 μl were removed. The concentration of each well of the Transil plate was 0.25 μmol/liter, which corresponds to a dilution of 1 to 10. The DMSO content was 5%.
The filled Transil plates were each resuspended for two minutes, then allowed to stand at room temperature for at least two minutes and then centrifuged at 600 rotations per minute for five minutes. The pipetting robot was then used to remove 20 μl of supernatant from each well of the Transil plate and to transfer these to a separate microtitre plate. Here, the supernatants of in each case four Transil plates were pooled in a microtitre plate, so that at the end there were three pooled microtitre plates with in each case 80 μl of solution and an active compound concentration of 62.5 nM per well.
Prior to quantification of the active compounds by HPLC-MS, an optimization has to be carried out for each active compound where by way of a single injection daughter ion and optimum electrical voltages are determined. To this end, the pipetting robot prepared a dilution of the mother plate of 1 to 10 000 000 in an acetonitrile/water mixture in a ratio of 8+2 in a separate microtitre plate. This microtitre plate was measured by HPLC-MS using the software Discovery Quant Optimize from AB Sciex. The three pooled microtitre plates were measured by HPLC-MS using the software Discovery Quant Analyze from AB Sciex. […]

[3] = Plasma protein binding by equilibrium dialysis; format: in vitro ADME
Protocol: The binding of test substances to plasma proteins is determined by equilibrium dialysis by means of the Ht-dialysis apparatus (96-well) made of Teflon and a semipermeable membrane (regenerated cellulose, MWCO 12-14K). This separates 150 μl each of a plasma side and a buffer side (50 mM phosphate buffer). The test substance is added in 2 concentrations (usually 3 and 0.3 μM) to the plasma side and binds to plasma proteins. The unbound fraction of the test substance passes through the membrane and is distributed on either side until equilibrium is established (after approx. 6-8 h at 37° C.). The substance concentration on the buffer side and the plasma side is determined by LC-MS analysis. For this, both sides are brought by dilution with buffer or plasma to the same matrix (10% plasma) and then precipitated with methanol. The free (unbound) fraction (fu) is calculated from the quotient of the buffer and plasma concentration. Stability tests and recovery tests are run concurrently as controls. In addition, the substance in buffer is dialysed against buffer, to check the nonspecific binding to apparatus and membrane and establishment of equilibrium. Because during incubation the osmotic pressure of the plasma proteins leads to dilution of the plasma (volume shift), this possible error is determined by weighing blank plasma samples and is included in the calculation of fu. Establishment of equilibrium and plasma stability should have a value not lower than 80% and the recovery should be at least 30%. A free fraction of <1% is regarded as high, between 1 and 10% as moderate and >10% as low plasma protein binding.

[4] = human plasma, read-out: fu [%] (human)
[5] = mouse plasma, read-out: fu [%] (mouse)
[6] = rat plasma, read-out: fu [%] (rat)

Structure (SMILES): COC[C@]1(OC)CC[C@@]2(CC1)NC(=O)C(c1cc(-c3ccc(Cl)cc3)ccc1C)=C2O [Example 1-3, (5r,8r)-3-(4′-Chloro-4-methylbiphenyl-3-yl)-4-hydroxy-8-methoxy-8-(methoxymethyl)-1-azaspiro[4.5]dec-3-en-2-one]
- chromatographic logP [1]: 2.3
- logMA [2]: <1.0
- fraction unbound [3, 4]: 0.0041
- fraction unbound [3, 5]: 0.038

Structure (SMILES): CO[C@]1(C)CC[C@]2(CC1)NC(=O)C(c1cc(-c3ccc(Cl)cc3)ccc1C)=C2O [Example V.1-a, (5r,8r)-3-(4′-Chloro-4-methylbiphenyl-3-yl)-4-hydroxy-8-methoxy-8-methyl-1-azaspiro[4.5]dec-3-en-2-one]
- logP/D pH7.4 [1]: 2.51
- logMA [2]: 1.4
- fu [%] (human) [3]: 0.38%
- fu [%] (rat) [3]: 0.23%
- fu [%] (mouse) ([3]; mouse plasma): 2.49%

- chromatographic logP [1]: 1.3
- logMA [2]: 2.3
Structure (SMILES): Cc1ccc(-c2ccc(Cl)c(F)c2)cc1C1=C(O)[C@]2(CC[C@](O)(C(F)(F)F)CC2)NC1=O [V.2-c, (5r,8r)-3-(4′-Chloro-3′-fluoro-4-methylbiphenyl-3-yl)-4,8-dihydroxy-8-(trifluoromethyl)-1-azaspiro[4.5]dec-3-en-2-one]

Structure (SMILES): COC[C@H]1CC[C@]2(CC1)NC(=O)C(c1cc(-c3ccc(Cl)cc3)ccc1C)=C2O [V.3-b, (5s,8s)-3-(4′-Chloro-4-methylbiphenyl-3-yl)-4-hydroxy-8-(methoxymethyl)-1-azaspiro[4.5]dec-3-en-2-one]
- chromatographic logP [1]: 2.5
- logMA [2]: 2.08
- fraction unbound [3, 4]: 0.0036
- fraction unbound [3, 5]: 0.109
- fraction unbound [3, 6]: 0.0779

Structure (SMILES): CO[C@]1(C)CC[C@]2(CC1)NC(=O)C(c1cc(-c3ccc(Cl)c(F)c3)ccc1C)=C2O [Example V.2-a, (5r,8r)-3-(4′-Chloro-3′-fluoro-4-methylbiphenyl-3-yl)-4-hydroxy-8-methoxy-8-methyl-1-azaspiro[4.5]dec-3-en-2-one]
- logP/D pH7.4 [1]: 2.52
- logMA [2]: 1.67
- fu [%] (human) [3]: 0.39%
- fu [%] (rat) [3]: 0.23%
- fu [%] (mouse) ([3]; mouse plasma): 2.8%

- chromatographic logP [1]: 1.6
- logMA [2]: 2.1
Structure (SMILES): Cc1ccc(-c2ccc(Cl)cc2)cc1C1=C(O)[C@]2(CC[C@](O)(C(F)(F)F)CC2)NC1=O [V.1-c, (5r,8r)-3-(4′-Chloro-4-methylbiphenyl-3-yl)-4,8-dihydroxy-8-(trifluoromethyl)-1-azaspiro[4.5]dec-3-en-2-one]

Structure (SMILES): CO[C@]1(C(F)(F)F)CC[C@]2(CC1)NC(=O)C(c1cc(-c3ccc(Cl)cc3)ccc1C)=C2O [Example 1-1, (5r,8r)-3-(4′-Chloro-4-methylbiphenyl-3-yl)-4-hydroxy-8-methoxy-8-(trifluoromethyl)-1-azaspiro[4.5]dec-3-en-2-one]
- chromatographic logP [1]: 2.44
- fraction unbound [3, 4]: 0.002
- fraction unbound [3, 5]: 0.0082

Structure (SMILES): COC[C@H]1CC[C@]2(CC1)NC(=O)C(c1cc(-c3ccc(Cl)c(F)c3)ccc1C)=C2O [V.4-b, (5s,8s)-3-(4′-Chloro-3′-fluoro-4-methylbiphenyl-3-yl)-4-hydroxy-8-(methoxymethyl)-1-azaspiro[4.5]dec-3-en-2-one]
- chromatographic logP [1]: 2.57
- logMA [2]: 2.13
- fraction unbound [3, 4]: 0.0141
- fu ratio mouse/human ([3]; mouse and human, plasma, Table 5): 1
- fraction unbound [3, 5]: 0.0176
- fraction unbound [3, 6]: 0.0011

Structure (SMILES): COC[C@]1(OC)CC[C@@]2(CC1)NC(=O)C(c1cc(-c3ccc(Cl)c(F)c3)ccc1C)=C2O [Example 1-4, (5r,8r)-3-(4′-Chloro-3′-fluoro-4-methylbiphenyl-3-yl)-4-hydroxy-8-methoxy-8-(methoxymethyl)-1-azaspiro[4.5]dec-3-en-2-one]
- chromatographic logP [1]: 2.38
- fraction unbound [3, 4]: 0.0037
- fraction unbound [3, 5]: 0.0217
- fraction unbound [3, 6]: 0.0021

Structure (SMILES): CO[C@]1(C(F)(F)F)CC[C@]2(CC1)NC(=O)C(c1cc(-c3ccc(Cl)c(F)c3)ccc1C)=C2O [Example 1-2, (5r,8r)-3-(4′-Chloro-3′-fluoro-4-methylbiphenyl-3-yl)-4-hydroxy-8-methoxy-8-(trifluoromethyl)-1-azaspiro[4.5]dec-3-en-2-one]
- chromatographic logP [1]: 2.45
- fraction unbound [3, 4]: 0.0026
- fraction unbound [3, 5]: 0.014
